From the supplement of paper PMC10307832

Columns and labels:
Test in all cases: relative viability (nuclei count vs DMSO), 5 days (fraction); higher = more cells survive
[1] = compound: C#Cc1cccc(Nc2ncnc3cc(OC)c(OCCCCCCC(=O)NO)cc23)c1 [CUDC-101] + CCNC(=O)c1noc(-c2cc(C(C)C)c(O)cc2O)c1-c1ccc(CN2CCOCC2)cc1 [Luminespib] (partner 0.01 µM)
Summary of the method: (§1)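 For relative viability, nuclei counts in treated wells were divided by those in vehicle wells. Lung cancer cell lines had been pin-tool dosed in 1536-well plates the day after seeding and cultured for 5 days, then fixed and stained in one step (final 0.05% Triton X-100, 1% formaldehyde, 1 ug/ml Hoechst) and imaged at 4×. Doses were one drug alone or a fixed anchor-drug dose plus five library-drug doses (not always all listed) in √10 steps, and values are duplicate-plate medians.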

[2] = compound: C1=CC=C2C(=C1)N=C(S2)C(C#N)C3=NC(=NC=C3)NCCC4=CN=CC=C4 + Cc1nc(Nc2ncc(C(=O)Nc3c(C)cccc3Cl)s2)cc(N2CCN(CCO)CC2)n1 [Dasatinib] (partner 0.075 µM)
Summary of the method: as §1

[3] = compound: C1=CC=C2C(=C1)N=C(S2)C(C#N)C3=NC(=NC=C3)NCCC4=CN=CC=C4 + Nc1ncn([C@H]2C[C@H](O)[C@@H](CO)O2)c(=O)n1 [Decitabine] (partner 2 µM)
Summary of the method: as §1

[4] = compound: C1=CC=C2C(=C1)N=C(S2)C(C#N)C3=NC(=NC=C3)NCCC4=CN=CC=C4 + O=C(c1cc(Cc2n[nH]c(=O)c3ccccc23)ccc1F)N1CCN(C(=O)C2CC2)CC1 [Olaparib] (partner 8 µM)
Summary of the method: as §1

Row | Cell Line | relative viability ([1]; first compound 0.01 µM) | relative viability ([1]; first compound 0.03162 µM) | relative viability ([1]; first compound 0.1 µM) | relative viability ([1]; first compound 0.3162 µM) | relative viability ([1]; first compound 1 µM) | relative viability ([2]; first compound 0.005 µM) | relative viability ([2]; first compound 0.01581 µM) | relative viability ([2]; first compound 0.05 µM) | relative viability ([2]; first compound 0.1581 µM) | relative viability ([2]; first compound 0.5 µM) | relative viability ([3]; first compound 0.005 µM) | relative viability ([3]; first compound 0.01581 µM) | relative viability ([3]; first compound 0.05 µM) | relative viability ([3]; first compound 0.1581 µM) | relative viability ([3]; first compound 0.5 µM) | relative viability ([4]; first compound 0.005 µM) | relative viability ([4]; first compound 0.01581 µM) | relative viability ([4]; first compound 0.05 µM) | relative viability ([4]; first compound 0.1581 µM) | relative viability ([4]; first compound 0.5 µM)
1 | NCI-H1355 | 0.729 | 0.741 | 0.694 | 0.676 | 0.586 | 0.674 | 0.66 | 0.699 | 0.772 | 0.478 | 0.367 | 0.376 | 0.381 | 0.358 | 0.366 | 0.704 | 0.761 | 0.764 | 0.825 | 0.769
2 | NCI-H23 | 0.197 | 0.204 | 0.209 | 0.207 | 0.197 | 0.645 | 0.836 | 1.02 | 0.974 | 0.993 | – | 0.306 | 0.329 | 0.323 | 0.338 | – | 0.33 | 0.276 | 0.303 | 0.282
3 | ABC-1 | 0.519 | 0.368 | 0.721 | 0.586 | 0.258 | 0.634 | 0.459 | 0.631 | 0.573 | 0.397 | 0.915 | – | 0.906 | 1.15 | 1.13 | 0.731 | – | 0.803 | 0.825 | 0.936
4 | NCI-H1755 | 0.602 | 0.302 | 0.496 | 0.576 | 0.394 | 0.365 | 0.397 | 0.404 | 0.456 | 0.384 | 0.673 | 0.789 | 0.683 | 0.75 | 0.7 | 0.914 | 0.994 | 0.881 | 1.06 | 0.943
5 | SK-LU-1 | 0.188 | 0.203 | 0.213 | 0.206 | 0.216 | 0.174 | 0.184 | 0.189 | 0.188 | 0.199 | 0.496 | 0.762 | 0.68 | 0.727 | 0.558 | 0.404 | 0.454 | 0.481 | 0.513 | 0.483
6 | NCI-H2126 | 1.03 | 0.871 | 0.938 | 0.891 | 0.793 | 0.603 | 0.543 | 0.573 | 0.584 | 0.49 | 0.495 | 0.579 | 0.565 | 0.546 | 0.577 | 0.771 | 0.945 | 0.887 | 0.978 | 0.75
7 | NCI-H650 | 0.959 | 0.688 | 0.912 | 0.957 | 0.619 | 0.43 | – | 0.405 | 0.589 | 0.476 | 0.316 | 0.356 | 0.319 | 0.338 | 0.325 | 0.412 | 0.369 | 0.441 | 0.345 | 0.363
8 | 201T | 1.03 | 0.988 | 0.981 | 1.08 | 1.02 | 0.799 | 0.523 | 0.599 | 0.549 | 0.486 | 0.772 | 0.91 | 0.868 | 0.833 | 0.911 | 0.829 | 0.837 | 0.802 | 0.905 | 0.706
9 | LU99A | 0.224 | 0.247 | 0.245 | 0.261 | 0.248 | 0.532 | 0.662 | 0.52 | 0.855 | 0.767 | 0.693 | 0.966 | – | 1 | 0.817 | 0.247 | 0.272 | – | 0.265 | 0.232
10 | NCI-H647 | 0.188 | 0.266 | 0.147 | 0.195 | 0.238 | 0.128 | 0.188 | 0.219 | 0.24 | 0.135 | 0.356 | 0.442 | 0.33 | 0.353 | 0.284 | 0.423 | 0.536 | 0.583 | 0.572 | 0.3
11 | LC-2-ad | 1.04 | 0.953 | 1.15 | 0.974 | 0.707 | 0.542 | 0.398 | 0.55 | 0.525 | 0.396 | 0.698 | 0.819 | 0.818 | 0.827 | 0.726 | 0.699 | 0.701 | 0.762 | 0.729 | 0.673
12 | LK-2 | 0.248 | 0.196 | 0.19 | 0.179 | 0.178 | 0.393 | 0.264 | 0.243 | 0.26 | 0.311 | 0.27 | 0.288 | 0.39 | 0.352 | 0.352 | 0.645 | 0.804 | 0.63 | 0.754 | 0.766
13 | NCI-H520 | 0.241 | 0.221 | 0.208 | 0.204 | 0.245 | 0.231 | 0.158 | 0.188 | 0.324 | 0.18 | 0.46 | 0.449 | 0.482 | 0.616 | 0.513 | 0.302 | 0.307 | 0.309 | 0.321 | 0.29
14 | NCI-H1975 | 0.336 | 0.155 | 0.254 | 0.351 | 0.213 | 0.352 | 0.333 | 0.35 | 0.37 | 0.24 | 0.436 | 0.341 | 0.334 | 0.432 | 0.434 | 0.658 | 0.866 | 0.78 | 0.913 | 0.475
